In patent US8022055B2, “Betulinic acid derivatives” (Dabur Pharma Limited, priority 2005, dated 2011):

What was measured:
HBL100 = assay: three day MTT cytotoxicity assay, HBL100; type: cell-based, human; settings: for IC50 for cell lines HBL100: HBL100, 72 hours, MTT; for Specific Index (SI) for cell lines HBL100: ratio of IC50 of NIH 3T3 cells to HBL100
Procedure: (§1) A number of compounds listed in Table-3 were tested for cytotoxicity against prostate, lung, laryngeal, pancreas, breast, colon and ovarian cancer, leukemia and lymphoma, human tumor cell lines. Briefly, a three day MTT cytotoxicity assay was performed, which is based on the principle of uptake of MTT (3-(4,5-dimethylthiazol-2-yl)-2,5-diphenyl tetrazolium bromide), a tetrazolium salt, by the metabolically active cells where it is metabolized by active mitochondria into a blue colored formazan product that is read spectrophotometrically. MIT was dissolved in phosphate buffered saline with a pH of 7.4 to obtain an MIT concentration of 5 mg/ml; the resulting mixture was filtered through a 0.22-micron filter to sterilize and remove a small amount of insoluble residue. For each type of tumor cell, 10,000 to 15,000 cells were seeded in a 96-well culture plate and incubated with the individual betulinic acid derivatives in a CO2 incubator for a total of 72 hours. Control cells not treated with the betulinic acid derivatives were similarly incubated. The assay was terminated by adding 100 μg (20 μl) of MIT to each well then incubating for additional one hour, and finally adding 50 μl of 10% SDS-0.01N HCl to each well to lyse the cells and dissolve formazan. After incubating for one hour, the plate was read spectrophotometrically at 540 nm and the percentage of cytotoxicity calculated using the following formula: Cytotoxicity percentage=100×[1−(X/R1)], where X=(absorbance of treated sample at 540 nm)−(absorbance of blank at 540 nm) R1=absorbance of control sample at 540 nm. The IC50 Values of the cytotoxicity defined as the concentration at which 50% of the cells are killed in vitro was calculated for each cell line treated with each of the betulinic acid derivatives.

DU145 = assay: three day MTT cytotoxicity assay, DU145; type: cell-based, human; settings: DU145, 72 hours
Procedure: as §1

NIH 3T3 cells = assay: NIH3T3 cytotoxicity test (72 h MTT assay); type: cell-based; settings: NIH3T3, 72 hours
Procedure: The cytotoxic effect of chemicals upon NIH 3T3 cells in culture is measured by cell metabolism determination using the previously described MIT assay. Healthy NIH 3T3 cells (an established cell-line), when maintained in culture continuously divide and multiply over time. The basis of this test is that a cytotoxic chemical (regardless of site or mechanism of action) will interfere with this process and, thus, result in a reduction of the growth rate as reflected by cell number. The degree of inhibition of growth, related to the concentration of the test compound, provides an indication of toxicity.
The NIH 3T3 cells are maintained in culture and exposed to test compounds over a range of concentrations and the number of viable cells determined after 72 hours exposure by MIT assay. The number of cells in the presence of test chemicals are compared to that observed in control cultures and the percent inhibition of growth calculated. The IC50 concentration (i.e. the concentration producing 50% inhibition of growth) is determined and expressed as μg/ml. A ratio of IC50 of NIH 3T3 cells to tumor cells is an indicator of predicted toxicity of the molecule and is represented as “Safety Index”. The higher the value, the better is the predicted safety of the molecule.

Miapaca = assay: three day MTT cytotoxicity assay, Miapaca; type: cell-based, human; settings: for IC50 for cell lines Miapaca: 72 hours, MTT; for Specific Index (SI) for cell lines Miapaca: ratio of IC50 of NIH 3T3 cells to Miapaca
Procedure: as §1

PA1 = assay: three day MTT cytotoxicity assay, PA1; type: cell-based, human; settings: PA1, 72 hours
SW620 = assay: three day MTT cytotoxicity assay, SW620; type: cell-based, human; settings: SW620, 72 hours
Procedure: Briefly, a three day MTT cytotoxicity assay was performed, which is based on the principle of uptake of MTT (3-(4,5-dimethylthiazol-2-yl)-2,5-diphenyl tetrazolium bromide), a tetrazolium salt, by the metabolically active cells where it is metabolized by active mitochondria into a blue colored formazan product that is read spectrophotometrically. MIT was dissolved in phosphate buffered saline with a pH of 7.4 to obtain an MIT concentration of 5 mg/ml; the resulting mixture was filtered through a 0.22-micron filter to sterilize and remove a small amount of insoluble residue. For each type of tumor cell, 10,000 to 15,000 cells were seeded in a 96-well culture plate and incubated with the individual betulinic acid derivatives in a CO2 incubator for a total of 72 hours. Control cells not treated with the betulinic acid derivatives were similarly incubated. The assay was terminated by adding 100 μg (20 μl) of MIT to each well then incubating for additional one hour, and finally adding 50 μl of 10% SDS-0.01N HCl to each well to lyse the cells and dissolve formazan. After incubating for one hour, the plate was read spectrophotometrically at 540 nm and the percentage of cytotoxicity calculated using the following formula: Cytotoxicity percentage=100×[1−(X/R1)], where X=(absorbance of treated sample at 540 nm)−(absorbance of blank at 540 nm) R1=absorbance of control sample at 540 nm. The IC50 Values of the cytotoxicity defined as the concentration at which 50% of the cells are killed in vitro was calculated for each cell line treated with each of the betulinic acid derivatives.

A549 = assay: three day MTT cytotoxicity assay, A549; type: cell-based, human; settings: for IC50 for cell lines A549: A549, 72 hours, MTT; for Specific Index (SI) for cell lines A549: ratio of IC50 of NIH 3T3 cells to A549
Procedure: as §1

K562 = assay: three day MTT cytotoxicity assay, K562; type: cell-based, human; settings: for IC50 for cell lines K562: K562, 72 hours, MTT; for Specific Index (SI) for cell lines K562: ratio of IC50 of NIH 3T3 cells to K562
Procedure: as §1

Compound | IC50 for cell lines HBL100 (HBL100) | IC50 for cell lines DU145 (DU145) | IC50 for cell lines NIH3T3 (NIH 3T3 cells) | IC50 for cell lines Miapaca (Miapaca) | IC50 for cell lines PA1 (PA1) | IC50 for cell lines SW620 (SW620) | Specific Index (SI) for cell lines HBL100 (HBL100) | IC50 for cell lines A549 (A549) | Specific Index (SI) for cell lines A549 (A549) | IC50 for cell lines K562 (K562) | Specific Index (SI) for cell lines K562 (K562) | Specific Index (SI) for cell lines Miapaca (Miapaca)
1′-Benzyl-2,3-didehydro-20,29-dihydro-4′-phenylpyrrolo[2′,′:2,3]betulinic acid [Compound 13] | >20 µg/mL | >20 µg/mL | >20 µg/mL | >20 µg/mL | >20 µg/mL | >20 µg/mL | – | – | – | – | – | –
C=C(C)[C@@H]1CC[C@]2(C(=O)O)CC[C@]3(C)C(CCC4[C@@]5(C)Cc6c(n(C)c7ccccc67)C(C)(C)C5CC[C@]43C)C12 (stereo partly drawn) [Compound 3, 2,3-Didehydro-1′-methylindolo[2′,′:2,3]betulinic acid] | 19.5 ± 2.1 µg/mL | ≥ 20 µg/mL | 15.12 ± 3.04 µg/mL | 5.34 ± 0.96 µg/mL | – | – | 0.775 | 6.9 ± 0.21 µg/mL | 2.191 | 7.73 ± 0.17 µg/mL | 1.956 | 2.831
CC(C)[C@@H]1CC[C@]2(C(=O)O)CC[C@]3(C)C(CCC4[C@@]5(C)Cc6c(n(C)c7ccccc67)C(C)(C)C5CC[C@]43C)C12 (stereo partly drawn) [Compound 4, 2,3-Didehydro-20,29-dihydro-1′-methylindolo[2′,3′,2,3]betulinic acid] | 14.14 ± 0.8 µg/mL | >20 µg/mL | >20 µg/mL | 5.4 ± 0.43 µg/mL | >20 µg/mL | – | >1.414 | 6.5 ± 3.4 µg/mL | >3.076 | 10.85 ± 1.5 µg/mL | >1.843 | >3.703
C=C(C)[C@@H]1CC[C@]2(C(=O)O)CC[C@]3(C)[C@H](CC[C@@H]4[C@@]5(C)Cc6c([nH]c7ccc(F)cc67)C(C)(C)[C@@H]5CC[C@]43C)[C@@H]12 [Compound 7, 2,3-Didehydro-5′-fluoroindolo[2′,′:2,3]betulinic acid] | >20 µg/mL | – | >20 µg/mL | 17.4 ± 2.6 µg/mL | – | 9.16 µg/mL | – | 17.8 ± 1.79 µg/mL | >1.123 | 10.95 ± 0.93 µg/mL | >1.826 | >1.149
CC(C)[C@@H]1CC[C@]2(C(=O)O)CC[C@]3(C)[C@H](CC[C@@H]4[C@@]5(C)Cc6c([nH]c7ccc(F)cc67)C(C)(C)[C@@H]5CC[C@]43C)[C@@H]12 [Compound 8, 2,3-Didehydro-5′-fluoro-20,29-dihydroindolo[2′,′:2,3]betulinic acid] | >20 µg/mL | – | 14.59 ± 0.33 µg/mL | 8.4 ± 0.76 µg/mL | – | 7.28 µg/mL | <0.730 | 8.89 ± 0.84 µg/mL | 1.641 | 14.01 ± 0.75 µg/mL | 1.041 | 1.737
CC(C)[C@@H]1CC[C@]2(C(=O)O)CC[C@]3(C)[C@H](CC[C@@H]4[C@@]5(C)Cc6c(oc7ccccc67)C(C)(C)[C@@H]5CC[C@]43C)[C@@H]12 [Compound 12, 2,3-Didehydro-20,29-dihydrobenzfurano[2′,3′:2,3]betulinic acid] | >20 µg/mL | >20 µg/mL | 20 ± 5.6 µg/mL | 8.8 ± 0.36 µg/mL | >20 µg/mL | – | <1 | 7.1 ± 1.6 µg/mL | 2.817 | 15.28 ± 0.18 µg/mL | 1.309 | 2.273
